Laboratory results: PMC4627826, “Synthesis and Biological Evaluation of Novel Gigantol Derivatives as Potential Agents in Prevention of Diabetic Cataract” (PLoS ONE, 2015)
Where two headings read alike, the source gives them in different places.

Tests used:
aldose reductase (AR) = target: T1, aldose reductase (AR) (Homo sapiens, UniProt P15121); assay: AR inhibition assay (NADPH absorbance decrease at 340 nm, DL-glyceraldehyde substrate); format: biochemical; settings: for IC50: mean ± SD (n = 3), NA = no activity
T1 construct: purchased Prospec-TanyTechnogene Ltd. (Israel)
Procedure: AR was purchased from Prospec-TanyTechnogene Ltd. (Israel). AR activity was evaluated as previously described. Briefly, the reaction mixture was composed of enzyme solution ([…], 20 μL), NADPH (0.104 mmol·L^-1, 50 μL; Italian Roth, Italy), DL-glyceraldehyde (10 mmol·L^-1, 50 μL; Sigma, U.S.), buffer phosphate (0.1 mol·L^-1), and selected concentrations of test compounds. The reaction was initiated by the addition of DL-glyceraldehyde as the substrate, and PBS was used as the blank control. The use of NAPDH, in parallel to AR activity, was monitored at room temperature for 10 min at 40 s intervals at 340 nm in an EnSpire™ Multimode Plate Reader. […] All assays were performed in triplicate.

[1] = system: human lens epithelial cells (HLECs; SRA 01/04); assay: Cell viability (MTT) of HLECs treated with D-galactose; format: cell-based; settings: for protection of HLECs from apoptosis (concentration not given): D-galactose-induced, tested at 0.1, 0.5, 1.0 μg·mL^-1
Procedure: Human lens epithelial cells (HLECs; SRA 01/04) were obtained from Dr. Fu Shang, USDA HNRCA at Tufts University, Boston, MA, U.S. and Zhongshan Ophthalmic Center, Sun Yat-sen University, Guangzhou, P. R. China and cultured in minimal essential medium (MEM) supplemented with 20% fetal bovine serum (FBS) and a cocktail of Penicillin-Streptomycin at 37°C in a humid environment containing 5% CO2 [52]. Cells were harvested at 80% confluency by trypsinization, and then fresh culture medium was added to generate single-cell suspensions for use in cell viability assays. HLECs were then seeded in 96-well cell culture grade microplates at a density of 1 × 10^5·mL^-1. After 24 h of incubation, the cells were treated for 72 h with 250 mmol·L^-1 D-galactose with and without test compounds (0.1, 0.5, or 1.0 μg·mL^-1).
Cell viability was assessed using an MTT assay. After the treatments, 20 μL of 5 mg·mL^-1 MTT solution was added to each well, followed by incubation for 4 h at 37°C. The resulting formazan crystals were then dissolved in 150 μL DMSO and absorbance measured at 570 nm using an EnSpire™ Multimode Plate Reader. The results are presented as percentages of cell survival as compared to the untreated control group, and all assays were performed in triplicate.

[2] = target: inducible nitric oxide synthase (iNOS) (Homo sapiens, UniProt P35228); assay: iNOS inhibition assay (Nitric Oxide Synthase Assay Kit, NO production); format: biochemical; settings: mean ± SD (n = 3); NA = no activity; read-out: IC50, inhibitory effect on iNOS activity
Procedure: iNOS produces NO by catalyzing a reaction involving L-Arg and oxygen. Its activity was assessed by monitoring NO production using a Nitric Oxide Synthase Assay Kit (Nanjing Jiancheng Bioengineering Institute, China), which was developed based on the method of Fröhlich et al.. […] All assays were performed in triplicate.

[3] = read-out: IC50, inhibitory effect on AR activity
[4] = compound at 1.0 μg·mL^-1, 250 mmol·L^-1 D-galactose, 72 h
[5] = compound at 0.1 μg·mL^-1, 250 mmol·L^-1 D-galactose, 72 h
[6] = compound at 0.5 μg·mL^-1, 250 mmol·L^-1 D-galactose, 72 h

| SMILES | IC50 (aldose reductase (AR); [3]) [µM] | protection of HLECs from apoptosis (concentration not given) [1] | melting point [°C] | IC50 [2] [µM] | further results |
| --- | --- | --- | --- | --- | --- |
| Oc1cc(O)cc(CCCc2ccc(F)cc2)c1 [Compound 21, 5-(3-(4-fluorophenyl)propyl)benzene-1,3-diol] | 556.3 ± 4.37 | – | – | – | – |
| CN(C)c1ccc(CCc2cc(O)cc(O)c2)cc1 [Compound 8] | 513.4 ± 2.33 | protected HLECs from apoptosis | 152.5 to 154.1 | – | protection of HLECs from D-galactose-induced apoptosis [1, 4]: protected HLECs from apoptosis |
| COc1cc(CCc2cc(Cl)ccc2O)ccc1O [Compound 14e, 4-chloro-2-(4-hydroxy-3-methoxyphenethyl)phenol] | 21.8 ± 5.47 | – | – | – | – |
| COc1cc(CCc2ccc(O)c(O)c2)ccc1O [Compound 14c, 4-(4-hydroxy-3-methoxyphenethyl)benzene-1,2-diol] | 534 ± 5.44 | – | – | – | – |
| COc1ccc(CCNCc2ccc(O)cc2)cc1OC [Compound 17b, 4-((3,4-dimethoxyphenethylamino)methyl)phenol] | – | – | 116.7 to 118.6 | – | IC50 (aldose reductase (AR); IC50, inhibitory effect on AR activity): 174 ± 3.38 µM |
| COc1cc(CCc2cc(OC)c(O)c(OC)c2)ccc1O [Compound 14a, 4-(4-hydroxy-3-methoxyphenethyl)-2,6-dimethoxyphenol] | 17.3 ± 1.72 | – | – | – | – |
| COc1cc(O)cc(CCc2ccc(O)c(OC)c2)c1 [Compound 14f, 4-[2-(3-hydroxy-5-methoxyphenyl)ethyl]-2-methoxyphenol] | 176 ± 3.21 | – | – | 680.1 ± 3.28 | – |
| COc1cc(CCc2cccc(OC)c2O)ccc1O [Compound 14b, 4-(2-hydroxy-3-methoxyphenethyl)-2-methoxyphenol] | 126 ± 1.3 | protected HLECs from apoptosis | – | 433.6 ± 4.23 | protection of HLECs from D-galactose-induced apoptosis [1, 5]: protected HLECs from apoptosis |
| COc1cc(CCc2ccc(O)c(OC)c2)cc(OC)c1 [Compound 14d, 4-(3,5-dimethoxyphenethyl)-2-methoxyphenol] | 39.2 ± 2.13 | – | – | – | – |
| COc1cc(O)cc(CCc2ccc(O)c(OC)c2)c1 [Extractive gigantol, 4-[2-(3-hydroxy-5-methoxyphenyl)ethyl]-2-methoxyphenol, reference compound] | 2517 ± 10.3 | protected HLECs from apoptosis | – | 32.2 ± 2.61 | protection of HLECs from D-galactose-induced apoptosis [1, 4]: protected HLECs from apoptosis |
| COc1cc(CCc2cc(OC)cc(OC)c2)cc(OC)c1 [Compound 4, 1,2-bis(3,5-dimethoxyphenyl)ethane] | 347 ± 3.74 | – | 104.6 to 107.9 | – | – |
| COc1ccc(CCNC(=O)Cc2ccc(O)cc2)cc1OC [Compound 25, N-(3,4-dimethoxyphenethyl)-2-(4-hydroxyphenyl)acetamide] | 54.4 ± 2.39 | – | 151.7 to 153.2 | – | – |
| Oc1cc(O)cc(CCc2cc(O)cc(O)c2)c1 [Compound 5, 5,5'-(ethane-1,2-diyl)dibenzene-1,3-diol5,5'-(ethane-1,2-diyl)dibenzene-1,3-diol] | 288.8 ± 2.16 | protected HLECs from apoptosis | 245.9 to 248.1 | 432.6 ± 2.37 | protection of HLECs from D-galactose-induced apoptosis [1, 6]: protected HLECs from apoptosis |
| COc1cc(O)cc(CCc2cccc3ccccc23)c1 [Compound 10, 3-methoxy-5-(2-(naphthalen-1-yl)ethyl)phenol] | 31.2 ± 1.51 | protected HLECs from apoptosis | 103.9 to 106.7 | 1189 ± 3.31 | potency in AR inhibition relative to synthetic gigantol (compound 14f) (aldose reductase (AR); more potent than 14f): 9 fold; cell survival (viability) of HLECs against D-galactose-induced apoptosis ([1]; 250 mmol·L^-1 D-galactose, 72 h, MTT, compounds at 0.1, 0.5 or 1.0 μg·mL^-1, percentage of Con): 72.26%; protection of HLECs from D-galactose-induced apoptosis [1, 6]: protected HLECs from apoptosis |
| Cc1ccc(S(=O)(=O)Nc2ccc(O)cc2)cc1 [Compound 23, N-(4-hydroxyphenyl)-4-methylbenzenesulfonamide] | 5.02 ± 2.57 | – | – | – | – |
| COc1ccc(CNc2nc3ccccc3s2)c(O)c1 [Compound 17c, 2-((benzo[d]thiazol-2-ylamino)methyl)-5-methoxyphenol] | 243 ± 5.67 | protected HLECs from apoptosis | 184.3 to 185.7 | – | protection of HLECs from D-galactose-induced apoptosis [1, 5]: protected HLECs from apoptosis |
